Laboratory results: ChEMBL document CHEMBL1932965, “Synthesis and SAR of inhibitors of protein kinase CK2: novel tricyclic quinoline analogs” (Bioorg Med Chem Lett, 2012)

Biological target: Casein kinase II alpha/beta (Homo sapiens, UniProt P68400)
Test: Inhibition of human recombinant CK2alpha/CK2beta using RRRDDDSDDD peptide as substrate by radiometric assay
Assay type: protein-complex assay

Sequence of Casein kinase II alpha/beta (P68400 whole entry, looked up): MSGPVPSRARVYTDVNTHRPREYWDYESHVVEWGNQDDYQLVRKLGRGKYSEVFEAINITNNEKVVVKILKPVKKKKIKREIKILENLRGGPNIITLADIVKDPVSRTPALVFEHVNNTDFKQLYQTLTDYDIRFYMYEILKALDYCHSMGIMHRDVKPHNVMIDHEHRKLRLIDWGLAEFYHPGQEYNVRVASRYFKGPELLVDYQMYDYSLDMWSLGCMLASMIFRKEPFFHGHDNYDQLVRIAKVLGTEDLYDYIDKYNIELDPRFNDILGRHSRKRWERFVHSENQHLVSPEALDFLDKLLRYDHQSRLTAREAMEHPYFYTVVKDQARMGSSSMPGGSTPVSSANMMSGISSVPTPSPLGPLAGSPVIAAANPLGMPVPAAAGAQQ

Question: How did the IC50 turn out when `O=C(O)c1ccc2c(c1)nc(-c1ccccc1)c1ccncc12` was run?
Answer: 1.1 nM

Question: `O=C(O)c1ccc2c(c1)nc(-c1cccnc1)c1ccncc12` was tested. Which IC50 did it give?
Answer: > 2500 nM

Question: How did the IC50 turn out when `O=C(O)c1ccc2c(c1)nc(-c1ccncc1)c1ccncc12` was run?
Answer: 35 nM

Question: Which IC50 does the source give for `O=C(O)c1ccc2c(c1)nc(-c1cccc(Cl)c1)c1ccncc12` here?
Answer: 2.9 nM

Question: With `O=C(O)c1ccc2c(c1)nc(-c1cccc(F)c1)c1ccncc12` as the compound, how does the IC50 read?
Answer: 1.3 nM

Question: For `Nc1cccc(-c2nc3cc(C(=O)O)ccc3c3cnccc23)c1`, which IC50 is on record?
Answer: 2.7 nM

Question: `O=C(O)c1ccc2c(c1)nc(-c1cccc(O)c1)c1ccncc12` was tested. Which IC50 did it give?
Answer: 1 nM

Question: Which IC50 does the source give for `COc1cccc(-c2nc3cc(C(=O)O)ccc3c3cnccc23)c1` here?
Answer: 34 nM

Question: Which IC50 does the source give for `O=C(O)c1ccc2c(c1)nc(-c1cccc(OC(F)(F)F)c1)c1ccncc12` here?
Answer: 5.7 nM

Question: Which IC50 does the source give for `CS(=O)(=O)c1cccc(-c2nc3cc(C(=O)O)ccc3c3cnccc23)c1` here?
Answer: 13 nM

Question: `NS(=O)(=O)c1cccc(-c2nc3cc(C(=O)O)ccc3c3cnccc23)c1` was tested. Which IC50 did it give?
Answer: 11 nM

Question: Which IC50 does the source give for `NC(=O)c1cccc(-c2nc3cc(C(=O)O)ccc3c3cnccc23)c1` here?
Answer: 3.5 nM

Question: With `O=C(O)c1ccc2c(c1)nc(-c1ccc(Cl)cc1)c1ccncc12` as the compound, how does the IC50 read?
Answer: 0.5 nM

Question: `O=C(O)c1ccc2c(c1)nc(-c1ccc(F)cc1)c1ccncc12` was tested. Which IC50 did it give?
Answer: 1.2 nM

Question: How did the IC50 turn out when `Cc1ccccc1-c1nc2cc(C(=O)O)ccc2c2cnccc12` was run?
Answer: 20 nM

Question: Which IC50 does the source give for `O=C(O)c1ccc2c(c1)nc(-c1ccccc1OC(F)(F)F)c1ccncc12` here?
Answer: 39 nM

Question: For `O=C(O)c1ccc2c(c1)nc(-c1ccccc1F)c1ccncc12`, which IC50 is on record?
Answer: 15 nM

Question: With `O=C(O)c1ccc2c(c1)nc(-c1ccc(Cl)cc1)c1ncncc12` as the compound, how does the IC50 read?
Answer: 12 nM

Question: For `O=C(O)c1ccc2c(c1)nc(-c1cccc(O)c1)c1ncncc12`, which IC50 is on record?
Answer: 3.5 nM

Question: Which IC50 does the source give for `NC(=O)c1cccc(-c2nc3cc(C(=O)O)ccc3c3cncnc23)c1` here?
Answer: 17 nM

Question: For `O=C(O)c1ccc2c(c1)nc(-c1ccccc1)c1nc(NC3CC3)ncc12`, which IC50 is on record?
Answer: 0.6 nM

Question: How did the IC50 turn out when `CCNc1ncc2c(n1)c(-c1ccc(Cl)cc1)nc1cc(C(=O)O)ccc12` was run?
Answer: 0.5 nM

Question: For `O=C(O)c1ccc2c(c1)nc(-c1ccsc1)c1ccncc12`, which IC50 is on record?
Answer: 0.5 nM

Question: Which IC50 does the source give for `Cc1cscc1-c1nc2cc(C(=O)O)ccc2c2cnccc12` here?
Answer: 4.2 nM

Question: For `O=C(O)c1ccc2c(c1)nc(-c1ccc(Cl)s1)c1ccncc12`, which IC50 is on record?
Answer: 0.4 nM

Question: Which IC50 does the source give for `COC(=O)c1ccc2c(c1)nc(-c1ccc(Cl)cc1)c1ccncc12` here?
Answer: 395 nM

Question: How did the IC50 turn out when `NC(=O)c1ccc2c(c1)nc(-c1ccc(Cl)cc1)c1ccncc12` was run?
Answer: 30 nM

Question: How did the IC50 turn out when `CONC(=O)c1ccc2c(c1)nc(-c1ccc(Cl)cc1)c1ccncc12` was run?
Answer: 444 nM

Question: Which IC50 does the source give for `N#Cc1ccc2c(c1)nc(-c1ccc(Cl)cc1)c1ccncc12` here?
Answer: > 2500 nM

Question: Which IC50 does the source give for `Clc1ccc(-c2nc3cc(-c4nnn[nH]4)ccc3c3cnccc23)cc1` here?
Answer: 20 nM

Question: With `O=C(O)c1ccc2nc(-c3ccc(Cl)cc3)c3ccncc3c2c1` as the compound, how does the IC50 read?
Answer: 164 nM

Question: `O=C(O)c1cccc2c1nc(-c1ccc(Cl)cc1)c1ccncc12` was tested. Which IC50 did it give?
Answer: 2030 nM

Question: With `CN(c1cccc(Cl)c1)c1nc2cc(C(=O)O)ccc2c2cnccc12` as the compound, how does the IC50 read?
Answer: 8.9 nM

Question: For `O=C(O)c1ccc2c(c1)nc(Oc1cccc(Cl)c1)c1ccncc12`, which IC50 is on record?
Answer: 3.7 nM

Question: For `O=C(O)c1ccc2c(c1)nc(Sc1cccc(Cl)c1)c1ccncc12`, which IC50 is on record?
Answer: 1 nM

Question: For `O=C(O)c1ccc2c(c1)nc(Cc1cccc(Cl)c1)c1ccncc12`, which IC50 is on record?
Answer: 2.1 nM
